The values that follow come from BindingDB's records for patent US10988451 (Gilead Sciences, 2021).

T1 sequence (Q07820 171-327): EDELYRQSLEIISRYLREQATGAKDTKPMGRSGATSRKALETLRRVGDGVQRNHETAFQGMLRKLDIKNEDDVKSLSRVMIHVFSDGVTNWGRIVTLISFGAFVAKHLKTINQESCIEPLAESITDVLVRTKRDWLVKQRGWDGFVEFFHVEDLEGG

This test concerns the target T1, Induced myeloid leukemia cell differentiation protein Mcl-1 [171-327] (Homo sapiens, UniProt Q07820).
T1 construct: 171-327
Briefly: AlphaLISA Assay. On the procedure: The AlphaLISA assay was performed in a 384-well Proxiplate in a total volume of […]. The reaction mixture contained 0.0625 nM 6× His-Mcl-1 (171-327), 0.0625 nM biotinylated-Bim peptide, 10 μg/mL AlphaLISA anti-6×His-AlphaLISA acceptor beads, 40 μg/mL AlphaScreen streptavidin donor beads, and serially diluted test compounds in the binding buffer (20 mM Hepes, pH 7.5 (Teknova H1035); 150 mM NaCl (Promega V4221); 0.002% Brij 35 (Thermo Scientific 20150); 1 mM Dithiothreitol (DTT) Solution (Affymetrix 70726); 0.01% BSA (BioLabs B9000S)). 1,000× test compounds were pre-spotted onto 384-well Proxiplate (Labcyte Echo) by Echo 555 Liquid Handler (Labcyte Inc., San Jose, Calif.) followed by incubation of 5 μl Mcl-1(171-327) for 1 hour. Then 5 μL Bim (51-76) was added and incubated for 2 hours. Five μL AlphaLISA anti-6His-AlphaLISA acceptor beads were then added for 1 hour followed by addition of 5 μL AlphaScreen streptavidin donor beads for 1 hour. The reaction plates were then read on an Envision multimode reader (PerkinElmer) using AlphaScreen settings.
For orientation: In Alpha technology, singlet oxygen from a donor bead excites a nearby acceptor bead.
`CO[C@H]1/C=C/C[C@H](C)C[S@@](=O)(NC(=O)C2CC(OC(F)F)C2)=NC(=O)c2ccc3c(c2)N(C[C@@H]2CC[C@H]21)C[C@@]1(CCCc2cc(Cl)ccc21)CO3` (stereo partly drawn) [US10988451, Example 431] gave a concentration for half-maximal inhibition (IC50) of 0.121 nM. This counts as sub-nanomolar.
In the case of `C[C@@H]1[C@@H](C)C/C=C/[C@H](O)[C@@H]2CC[C@H]2CN2C[C@@]3(CCCc4cc(Cl)ccc43)COc3ccc(cc32)C(=O)N=[S@]1(=O)NC(=O)c1cc2n(c1)C[C@H](CN1CCN3CCOC[C@H]3C1)OC2` [US10988451, Example 229] it was 0.03 nM.
The value for `CO[C@H]1/C=C/C[C@H](C)C[S@@](=O)(NC(=O)c2cc3n(c2F)CCOC3)=NC(=O)c2ccc3c(c2)N(C[C@@H]2CC[C@H]21)C[C@@]1(CCCc2cc(Cl)ccc21)CO3` [US10988451, Example 174] was 0.153 nM.

One may read the IC50 as the point on the concentration scale where inhibition reaches its midpoint.
